Measured values reported in patent US20010041708A1, “Compositions for preventing cellulite in mammalian skin” (Zen-Bio, Inc., priority 2000, published 2001).
Several values for one entry are separate records, joined by “and”; a condition that tells them apart may be missing. Equal values may be shown once.

Key:
[1] = system: stromal vascular (SV) cells from human adipose tissue; experiment: Triglyceride (TG) content of differentiating primary cultures of SV cells; type: cell-based; conditions: for TG content, dose response: Exp. 3, 1, 3, 10, 30 uM; for More TG content than cultures treated with 10 uM trans-10, cis-12 CLA alone: Exp. 4
Protocol: Abdominal adipose tissue (Exp. 1-5) and thigh adipose tissue (Exp. 5b) were obtained from middle-aged females with body mass indexes <30.0 during liposuction or elective surgery. Subsequently, tissue was minced and enzymatically digested for 45 min in a Krebs-Ringer buffer containing 1 mg/mL collagenase (CLS-1, Worthington Biochemical Corp, Lakewood, N.J.), 15 mg/mL bovine serum albumin (BSA), 5 mM glucose and 100 mM HEPES (pH 7.4). Digestion was carried out at a 5 mL/1 g ratio (digestion solution: tissue mass). The digesta was then filtered through 200- and 60-micron mesh and pelleted at 600×g for 5 min. The SV cells were resuspended in a RBC lysis buffer for 10 min and then filtered and recentrifuged to remove contaminating […]. Cultures of SV cells were grown in proliferation medium containing 90% DME/Ham's F-10 (1:1, v/v), 10% (v/v) fetal bovine serum (FBS), 15 mM HEPES (pH 7.4), 60 U/mL penicillin, 60 U/mL streptomycin, and 25 ug/mL fungizone. Cultures were incubated at 37° C. in a humidified […]:CO2 (90:10%) atmosphere. SV cells were grown to 80% confluency and then cryopreserved in liquid nitrogen in aliquots (2×10^6 cells/mL).
Cryopreserved aliquots were subsequently thawed, seeded in T-150 flasks (e.g., 1 vial per 2 T-150 flasks), and grown in proliferation media until 80% confluent. At this time the cells were removed via trypsinization, seeded (3×10^4/cm^2, except for Exp. 1) in 24-well or 96-well (Exp. 5b) Falcon dishes, and allowed to attach for 24 h in proliferation medium. Following attachment, cultures were grown in differentiation medium for the next 3 d which contained DME/Ham's F-10 (1:1,v/v), 15 mM HEPES (pH 7.4), 33 uM biotin, 17 uM pantothenate, 100 nM human insulin, 1 uM dexamethasone (DEX), 60 U/mL penicillin, 60 U/mL streptomycin, 25 ug/mL fungizone, 0.25 mM isobutylmethylxanthine (IBMX), and TZD (Exp. 1 & 2=BRL 49653; Exp. 3-5=Zen Bio's proprietary reagent). Thereafter, cultures were exposed to adipocyte medium consisting of 90% DME/Ham's F-10 (1:1,v/v), 15 mM HEPES (pH 7.4), 3% FBS (v/v), 33 uM biotin, 17 uM pantothenate, 100 nM human insulin, 1 uM DEX, 60 U/mL penicillin, 60 U/mL streptomycin, and 25 ug/mL fungizone. Adipocyte media was replaced every 3 d. […] After 18 day in culture, the majority of the cells contained visual lipid droplets.
(§1) Experiment 1 was designed to determine optimal culturing conditions during differentiation of primary cultures of SV cells isolated from human adipose tissue. Specifically, the experiment was designed to determine how seeding density and thiazolidinedione (TZD; PPARγ-agonist BRL 49653) concentration influenced TG content (ug/10^6cells). SV cells were seeded at increasing densities (2-, 3-, or 4×10^4/cm^2) in differentiation media containing 0, 1, or 10 uM TZD (BRL 49653) in this 3×3 factorial design. All cultures received the same adipocyte media after 3 d of differentiation. The cultures were harvested on day 11-12 of differentiation and TG content and cell number were measured. Another set of cultures was stained with Oil Red O and counterstained with Mayer's hematoxylin to assess cellular differentiation potential (n=3 per treatment combination).
In Experiment 2 the impact of linoleic acid and the trans-10, cis-12 isomer of CLA on TG accumulation in these cells was examined. SV cells were seeded at a density of 3×10^4/cm^2 and continuously treated with either 10 uM linoleic acid, 100 uM linoleic acid, 10 uM trans-10, cis-12 CLA, or 100 uM trans-10, cis-12 CLA, and grown under our normal differentiation protocol. One set of control cultures contained only vehicle (BSA) and another contained vehicle plus TZD (BRL 49653). TG content and cell number were measured on day 11 of differentiation.
The objective of Experiment 3 was to evaluate the dose response of trans-10, cis-12 CLA, cis-9, trans-11 CLA, and linoleic acid on TG content of the cultures. […]

[2] = system: stromal vascular (SV) cells from human adipose tissue; experiment: Percentage of cells differentiated into adipocytes (Oil Red O staining); type: cell-based; conditions: Exp. 1, seeding density 4×10^4
Protocol: as §1
The presence of intracellular lipid was visualized by staining cultures with Oil Red O as previously described for human SV cultures (McIntosh et al. (1999) Int. J. Obesity 23:595-602). […] Counterstaining allows for quantifying the percentage of cells that have undergone differentiation (e.g., […]). […]

[3] = system: differentiated human adipocytes; experiment: Lipolysis measurement (glycerol release) in day 21 differentiated human adipocytes; conditions: 3 hrs
[4] = system: cultures of thigh adipocytes; experiment: Lipolysis assay (glycerol release), thigh adipocytes; type: cell-based, human; conditions: Exp. 5b; 1 uM, 5 h, day 18, thigh
Protocol: (§2) Subsequently, tissue was minced and enzymatically digested for 45 min in a Krebs-Ringer buffer containing 1 mg/mL collagenase (CLS-1, Worthington Biochemical Corp, Lakewood, N.J.), 15 mg/mL bovine serum albumin (BSA), 5 mM glucose and 100 mM HEPES (pH 7.4). Digestion was carried out at a 5 mL/1 g ratio (digestion solution: tissue mass). The digesta was then filtered through 200- and 60-micron mesh and pelleted at 600×g for 5 min. The SV cells were resuspended in a RBC lysis buffer for 10 min and then filtered and recentrifuged to remove contaminating […]. […] SV cells were grown to 80% confluency and then cryopreserved in liquid nitrogen in aliquots (2×10^6 cells/mL). In Experiment 5b, basal lipolysis was measured on day 18 of differentiation after the cultures had been treated with fatty acids for 5 h. […] Lipolysis was determined by measuring free and esterified glycerol release into the media following acute (5 h) treatment. […] On day 17 of differentiation, cultures were grown in basal adipocyte media (adipocyte media minus insulin and DEX). […] A set of vehicle controls contained 0.1% DMSO. One hundred microliters of conditioned media was removed from each well, and lipolytic rate determined by quantifying the amount of free glycerol and esterified glycerol in each sample using Sigma's triglyceride kit (GPO-Trinder, Sigma Chemical Co.).

[5] = system: cultures of abdominal adipocytes; experiment: Lipolysis assay (glycerol release), abdominal adipocytes; type: cell-based, human; conditions: Exp. 5b; 1 uM, 5 h, day 18, abdominal
Protocol: as §2

[6] = system: stromal vascular (SV) cells from human adipose tissue; experiment: De novo lipogenesis (14C-glucose incorporation into cellular lipid); type: cell-based; conditions: Exp. 5a; 3, 10, 30 uM, day 12
Protocol: Experiments 5a and 5b were designed to determine if the trans-10, cis-12 CLA-mediated reduction in TG content was due to decreased lipogenesis and/or increased lipolysis. In Experiment 5a (lipogenesis), SV cells were seeded at a density of 3×10^4/cm^2 and continuously treated with increasing concentrations (3, 10, or 30 uM) of either linoleic acid, cis-9, tran-11 CLA, or trans-10, cis-12 CLA. A set of control cultures received vehicle (BSA) plus TZD. All cultures received differentiation media (days 1-3), adipocyte media (days 4-9), and low-glucose (˜5 mM) adipocyte media (days 10-12) prior to measuring de novo lipogenesis. On day 12, ^14C-labeled glucose incorporation into the lipid fraction of the cultures was measured for 2 h and, following lipid extraction, the radioactivity in the lipid fraction was determined by scintillation counting. Time course data (not shown) indicated a linear increase in radiolabeled glucose incorporation into lipid over 2 h.
Incorporation of ^14C-glucose into cellular lipid was determined on day 12 of differentiation in cultures chronically treated with fatty acids or vehicle. Following the addition of fatty acids and low glucose (˜5 mM) medium to the cultures on day 12, 1.0 μCi [U-^14C]-glucose ([U-^14C]-D-glucose; SA ˜250 mCi/mmol, ICN, Costa Mesa, Calif.)/mL medium was added to the cultures for 2 h. Our time course study (data not shown) indicated a linear increase in radiolabeled glucose incorporation into lipid over a 2 h period. After 2 h, media containing unincorporated ^14C-glucose was immediately removed and the cultures were washed with 1 mL HBSS to remove unincorporated ^14C-glucose. An additional 1 mL of HBSS was added and, after vigorous tritaration, cells were transferred to glass vials. Five milliliters of a chloroform:methanol (2:1) solution was added to each vial and they were vortexed for 1 min. All samples were then centrifuged for 5 min at 1000×g to further separate the hydrophobic and hydrophilic phases. The lower hydrophobic phase was removed from the tubes and dried under nitrogen at 40° C. Five milliliters of scintillation cocktail (Scinti Verse, Fisher Scientific, Norcross, Ga.) was added to each sample, and the ^14C content was determined by liquid scintillation counting on a Beckman LS 6000 Scintillation Counter (Beckman Instruments, Palo Atlo, Calif.). […] The radioactivity in the lipid fraction from these cultures was subtracted from the total counts. Cell numbers were determined from parallel treatment groups in separate culture dishes at the time of radioisotope addition to the medium. Therefore, mean ^14C-glucose incorporation is expressed as cpm/10^6 cells.

[7] = system: 3T3-L1 preadipocytes; experiment: Fatty acid composition of neutral and phospholipid fractions of treated cultures; type: cell-based, murine
[8] = system: 3T3-L1 preadipocytes; experiment: TG content of 3T3-L1 preadipocytes; type: cell-based, murine; conditions: LA supplementation of CLA-treated cultures
[9] = system: 3T3-L1 preadipocytes; experiment: Morphological changes (apoptosis-like) in CLA-treated cultures; type: cell-based, murine; conditions: LA supplementation of trans-10, cis-12 CLA-treated cultures
[10] = system: 3T3-L1 preadipocytes; experiment: Cell number of treated 3T3-L1 cultures; type: cell-based, murine; conditions: data not shown
[11] = system: PPARγ2; experiment: PPARγ2 protein expression in 3T3-L1 preadipocytes; type: cell-based, murine
[12] = system: aP2; experiment: aP2 protein expression in 3T3-L1 preadipocytes; type: cell-based, murine; conditions: after 6 d of treatment

## CN(CCOc1ccc(CC2SC(=O)NC2=O)cc1)c1ccccn1 (stereo not drawn) [BRL 49653]
[1]; Exp. 1, 10 uM, seeded at 4×10^4 cells/cm^2
  TG content, fold greater than similarly seeded cultures without BRL 49653: 10 fold
[2]; 1 uM TZD
  Percentage of cells that differentiated: 50%
[2]; 10 uM TZD
  Percentage of cells that differentiated: 47%

## Cn1c(=O)c2c(ncn2C)n(C)c1=O [Caffeine]
[3]; 0.1 % (wt./volume)
  Lipolysis, fold increase over control: 2.4 fold and 4.2 fold

## CC(C)NCC(O)c1ccc(O)c(O)c1 (stereo not drawn) [Isoproterenal]
[4]
  Stimulation of lipolysis: ~1.5 fold
[3]; 0.00002 % (wt./volume)
  Lipolysis, fold increase over control: 3.4 fold
[5]
  Stimulation of lipolysis: approximately 2.5 fold

## Cn1c(=O)c2[nH]cnc2n(C)c1=O [Theophylline]
[3]; 0.01 % (wt./volume)
  Lipolysis, fold increase over control: 0.8 fold
[3]; 0.05 % (wt./volume)
  Lipolysis, fold increase over control: 1.9 fold
[3]; 0.1 % (wt./volume)
  Lipolysis, fold increase over control: 3.1 fold

## CCCCCC/C=C/C=C\CCCCCCCC(=O)O [cis-9, trans-11 CLA]
[1]; day 11
  TG content, dose response: increased in a dose dependent fashion
[6]
  Incorporation of 14C-glucose into cellular lipid per 10^6 cells, dose response: neither linoleic acid nor trans-9, cis-11 CLA influenced de novo lipogenesis
[7]
  Abundance in lipid fractions relative to trans-10, cis-12 isomer: 1-2 fold
[7]; neutral and phospholipid fractions
  Incorporation into cellular lipid fractions: incorporated into the neutral and phospholipid fractions

## CCCCC/C=C\C/C=C\CCCCCCCC(=O)O [linoleic acid, 9 cis, 12 cis-octadecadienoic acid]
[8]
  TG content, concurrent linoleic acid with trans-10, cis-12 CLA: able to prevent the TG-lowering effects of trans-10, cis-12 CLA
[1]; Exp. 2, 100 uM, continuous treatment, day 11
  TG content vs other treatments / TZD treated vehicle controls: highest TG content
[1]; day 11
  TG content, dose response: increased in a dose dependent fashion
[1]; 10 uM linoleic acid added to 10 uM trans-10, cis-12 CLA
  More TG content than cultures treated with 10 uM trans-10, cis-12 CLA alone: 26%
[1]; 30 uM linoleic acid added to 10 uM trans-10, cis-12 CLA
  More TG content than cultures treated with 10 uM trans-10, cis-12 CLA alone: 55%
[1]; 100 uM linoleic acid added to 10 uM trans-10, cis-12 CLA
  More TG content than cultures treated with 10 uM trans-10, cis-12 CLA alone: 64%
[6]
  Incorporation of 14C-glucose into cellular lipid per 10^6 cells, dose response: neither linoleic acid nor trans-9, cis-11 CLA influenced de novo lipogenesis
[9]
  CLA-induced morphological changes: inhibited the CLA-induced morphological changes in a dose-dependent manner
[10]
  Cell number: increased cell number
[11]; 6 d
  PPARγ2 protein levels, concurrent LA and trans-10, cis-12 CLA vs CLA alone: increased PPARγ2 protein levels
[11]; after 6 d of treatment
  PPARγ2 protein expression: decreased
[11]; day 2 of differentiation
  PPARγ2 protein expression compared to BSA controls: reduced PPARγ2 protein expression
[12]
  aP2 protein expression: decreased
